{
  "source": "patent US11078496B2",
  "about": "“System for F-box hormone receptor regulated protein expression in mammalian cells” (ICAHN SCHOOL OF MEDICINE AT MOUNT SINAI, priority 2016, dated 2021)",
  "tested_on": "A-CHK1 mESCs",
  "assay": "Aphidicolin sensitivity of A-CHK1 mESCs (crystal violet staining)",
  "assay_type": "cell-based, mouse",
  "procedure": "FIG. 5A is a western blot analysis depicting endogenous CHK1 (*) and AID^47-CHK1 (A-CHK1, **) in four selected clones and in parental non-infected mESCs. […] serves as a loading control. Experiment was repeated three times for clones #1 and #2, and a representative blot is presented. In FIG. 5B, A-CHK1 #2 mESCs were treated with ethanol (“Con”) or auxin (“IAA”) for 1 day. Cells were then treated with the indicated concentrations of aphidicolin (“Aph”). Equal concentrations of DMSO were applied to all conditions. The next day, cells were stained with crystal violet and plates were scanned. […] In FIG. 5C, mESC clones were pretreated with […] aphidicolin for 1 day and were then treated with auxin for the indicated time periods. Left panel: mitotic index was calculated as the percentage of H3^pS10-positive cells with 4N DNA content, measured by flow cytometry. […] Tyr15 phosphorylation of CDK1 (“CDKlpY^15”) was detected using a phospho-specific antibody. β-Actin serves as a loading control. […]\nCCE mESCs were infected with pRAIDRS A-CHK1 or GFP-A. Selected clones were analyzed for their CHK1-dependent response to aphidicolin treatment. […] Cells were then treated with 1 μM 5 aphidicolin (“Aph”) or 0.001% DMSO for 12 hours and analyzed for DNA content using propidium iodide (“PI”). […] Apoptotic index was calculated as the percentage of Annexin V-positive, 7-AAD-negative cells. […]",
  "data": [
    {"smiles": "C[C@@]1(CO)[C@H](O)CC[C@@]2(C)[C@H]1CC[C@H]1C[C@@H]3C[C@@]12CC[C@]3(O)CO", "note": "[aphidicolin, Aphidicolin]", "values": [
      {"measurement": "aphidicolin concentration after which cells died", "setting": "auxin-treated (CHK1-depleted) A-CHK1 mESCs", "value": 0.1, "unit": "mM"},
      {"measurement": "fold higher aphidicolin concentration at which control cells survived", "setting": "control-treated A-CHK1 cells versus auxin-treated cells", "value": 100, "unit": "fold"}
    ]}
  ]
}
